Measurements from the NIST ThermoML archive (doi:10.1016/j.fluid.2012.09.026).
“And” between values parts separate entries of the source, which are not always exact repeats. Equal entries are not always repeated. Numbers after ± are expanded uncertainties.

Columns and labels:
[1] = for vapor or sublimation pressure: Closed cell (Static) method
[2] = molar heat capacity at constant volume; conditions: Vacuum adiabatic calorimetry

CCCCO [butan-1-ol]
[1], Liquid
Conditions	vapor or sublimation pressure
496.62 K	1529 ± 3 kPa
497.54 K	1549 ± 4 kPa
497.6 K	1555 ± 3 kPa
497.65 K	1555 ± 3 kPa
497.7 K	1559 ± 3 kPa
497.97 K	1559 ± 4 kPa
506.74 K	1834 ± 4 kPa
506.84 K	1834 ± 4 kPa
507.01 K	1854 ± 4 kPa and 1844 ± 4 kPa
507.23 K	1844 ± 4 kPa
507.25 K	1844 ± 4 kPa
507.3 K	1854 ± 5 kPa
518.64 K	2241 ± 4 kPa
518.91 K	2246 ± 4 kPa
518.99 K	2248 ± 4 kPa
519.06 K	2248 ± 4 kPa
519.2 K	2252 ± 4 kPa
528.31 K	2622 ± 5 kPa
531.38 K	2776 ± 5 kPa
532.65 K	2804 ± 5 kPa
533.03 K	2834 ± 6 kPa
533.2 K	2834 ± 5 kPa
533.4 K	2838 ± 5 kPa
537.47 K	3029 ± 6 kPa
539.69 K	3127 ± 6 kPa
541.16 K	3205 ± 6 kPa
541.95 K	3245 ± 6 kPa
542.81 K	3295 ± 6 kPa
543.19 K	3293 ± 6 kPa
543.3 K	3315 ± 9 kPa
543.89 K	3315 ± 8 kPa
546.79 K	3456 ± 7 kPa
548.49 K	3579 ± 7 kPa
550.45 K	3647 ± 7 kPa
555.53 K	3983 ± 11 kPa
555.6 K	3945 ± 10 kPa
555.7 K	3941 ± 8 kPa
556.16 K	3963 ± 8 kPa
557.65 K	4075 ± 8 kPa
559.05 K	4168 ± 8 kPa
559.33 K	4181 ± 8 kPa

Conditions	mass density [kg/m3]	molar heat capacity at constant volume [J/K/mol]	specific volume [m3/kg]
[1], 520 K, Gas, isochoric method	–	–	0.01653 ± 4.1e-05
[1], 520 K, Liquid, isochoric method	–	–	0.001879 ± 5e-06
[1], 530 K, Gas, isochoric method	–	–	0.01351 ± 3.4e-05
[1], 530 K, Liquid, isochoric method	–	–	0.001974 ± 5e-06
[1], 533.45 K, Gas, isochoric method	–	–	0.01243 ± 3.1e-05
[1], 533.45 K, Liquid, isochoric method	–	–	0.002001 ± 5e-06
[1], 540 K, Gas, isochoric method	–	–	0.01078 ± 2.7e-05
[1], 540 K, Liquid, isochoric method	–	–	0.002103 ± 5e-06
[1], 540.57 K, Liquid, Isochoric Breaking Point	470 ± 1.1	–	–
[1], 547.36 K, Gas, Isochoric Breaking Point	113.76 ± 0.31	–	–
[1], 550 K, Gas, isochoric method	–	–	0.008333 ± 2.2e-05
[1], 550 K, Liquid, isochoric method	–	–	0.002288 ± 6e-06
[1], 558.65 K, Gas, Isochoric Breaking Point	167.7 ± 0.44	–	–
[1], 560 K, Gas, isochoric method	–	–	0.005682 ± 1.8e-05
[1], 560 K, Liquid, isochoric method	–	–	0.002717 ± 7e-06
[1], 561 K, Gas, isochoric method	–	–	0.005319 ± 1.8e-05
[1], 561 K, Liquid, isochoric method	–	–	0.002792 ± 8e-06
[1], 561.08 K, Liquid, Isochoric Breaking Point	345.9 ± 1.4	–	–
[1], 561.85 K, Gas, Isochoric Breaking Point	203.9 ± 0.6	–	–
[1], 562 K, Gas, isochoric method	–	–	0.004879 ± 1.6e-05
[1], 562 K, Liquid, isochoric method	–	–	0.002985 ± 9e-06
[1], 563 K, Gas, isochoric method	–	–	0.0046 ± 1.4e-05
[1], 563 K, Liquid, isochoric method	–	–	0.003108 ± 8e-06
[1], 563.04 K, Liquid, Isochoric Breaking Point	270 ± 1.3	–	–
[2], 520 K, Gas, Specific volume=0.016529 m3/kg	–	236.45 ± 14	–
[2], 520 K, Liquid, Specific volume=0.001879 m3/kg	–	220.88 ± 13	–
[2], 530 K, Gas, Specific volume=0.013513 m3/kg	–	243.12 ± 15	–
[2], 530 K, Liquid, Specific volume=0.001974 m3/kg	–	220.22 ± 13	–
[2], 533.45 K, Gas, Specific volume=0.012425 m3/kg	–	246.16 ± 15	–
[2], 533.45 K, Liquid, Specific volume=0.002001 m3/kg	–	220.22 ± 13	–
[2], 540 K, Gas, Specific volume=0.010776 m3/kg	–	252.01 ± 15	–
[2], 540 K, Liquid, Specific volume=0.002103 m3/kg	–	220.14 ± 13	–
[2], 550 K, Gas, Specific volume=0.008333 m3/kg	–	260.91 ± 16	–
[2], 550 K, Liquid, Specific volume=0.002288 m3/kg	–	220.88 ± 13	–
[2], 560 K, Gas, Specific volume=0.005682 m3/kg	–	281.74 ± 17	–
[2], 560 K, Liquid, Specific volume=0.002717 m3/kg	–	228.37 ± 14	–
[2], 561 K, Gas, Specific volume=0.005319 m3/kg	–	286.85 ± 17	–
[2], 561 K, Liquid, Specific volume=0.002792 m3/kg	–	235.71 ± 14	–
[2], 562 K, Gas, Specific volume=0.004879 m3/kg	–	294.26 ± 18	–
[2], 562 K, Liquid, Specific volume=0.002985 m3/kg	–	247.57 ± 15	–
[2], 563 K, Gas, Specific volume=0.0046 m3/kg	–	303.9 ± 18	–
[2], 563 K, Liquid, Specific volume=0.003108 m3/kg	–	258.68 ± 15	–
[2], 563.21 K, Fluid (supercritical or subcritical phases), Mass density=270 kg/m3	–	356.16 ± 22	–
[2], 563.39 K, Fluid (supercritical or subcritical phases), Mass density=270 kg/m3	–	317.24 ± 19	–
[2], 563.57 K, Fluid (supercritical or subcritical phases), Mass density=270 kg/m3	–	306.86 ± 18	–
[2], 564.81 K, Fluid (supercritical or subcritical phases), Mass density=270 kg/m3	–	294.63 ± 18	–
[2], 564.99 K, Fluid (supercritical or subcritical phases), Mass density=270 kg/m3	–	292.04 ± 18	–
[2], 565.17 K, Fluid (supercritical or subcritical phases), Mass density=270 kg/m3	–	290.19 ± 17	–
[2], 566.6 K, Fluid (supercritical or subcritical phases), Mass density=270 kg/m3	–	282.4 ± 17	–
[2], 566.77 K, Fluid (supercritical or subcritical phases), Mass density=270 kg/m3	–	280.18 ± 17	–
[2], 566.95 K, Fluid (supercritical or subcritical phases), Mass density=270 kg/m3	–	279.81 ± 17	–
[2], 567.13 K, Fluid (supercritical or subcritical phases), Mass density=270 kg/m3	–	277.59 ± 17	–
[2], 569.09 K, Fluid (supercritical or subcritical phases), Mass density=270 kg/m3	–	269.8 ± 16	–
[2], 569.26 K, Fluid (supercritical or subcritical phases), Mass density=270 kg/m3	–	269.06 ± 16	–
[2], 569.44 K, Fluid (supercritical or subcritical phases), Mass density=270 kg/m3	–	268.32 ± 16	–
[2], 573.52 K, Fluid (supercritical or subcritical phases), Mass density=270 kg/m3	–	259.06 ± 16	–
[2], 573.67 K, Fluid (supercritical or subcritical phases), Mass density=270 kg/m3	–	257.94 ± 15	–
[2], 582.51 K, Fluid (supercritical or subcritical phases), Mass density=270 kg/m3	–	246.83 ± 15	–
[2], 582.69 K, Fluid (supercritical or subcritical phases), Mass density=270 kg/m3	–	246.08 ± 15	–
[2], 582.86 K, Fluid (supercritical or subcritical phases), Mass density=270 kg/m3	–	246.08 ± 15	–
[2], 583.22 K, Fluid (supercritical or subcritical phases), Mass density=270 kg/m3	–	245.34 ± 15	–
[2], 590.92 K, Fluid (supercritical or subcritical phases), Mass density=270 kg/m3	–	240.15 ± 14	–
[2], 591.07 K, Fluid (supercritical or subcritical phases), Mass density=270 kg/m3	–	240.52 ± 14	–
[2], 591.23 K, Fluid (supercritical or subcritical phases), Mass density=270 kg/m3	–	239.41 ± 14	–
[2], 591.62 K, Fluid (supercritical or subcritical phases), Mass density=270 kg/m3	–	239.41 ± 14	–
[2], 598.76 K, Fluid (supercritical or subcritical phases), Mass density=270 kg/m3	–	235.34 ± 14	–
[2], 599.1 K, Fluid (supercritical or subcritical phases), Mass density=270 kg/m3	–	236.08 ± 14	–
[2], 599.28 K, Fluid (supercritical or subcritical phases), Mass density=270 kg/m3	–	235.71 ± 14	–
[2], 599.63 K, Fluid (supercritical or subcritical phases), Mass density=270 kg/m3	–	234.97 ± 14	–
[2], 605.17 K, Fluid (supercritical or subcritical phases), Mass density=270 kg/m3	–	232.74 ± 14	–
[2], 605.35 K, Fluid (supercritical or subcritical phases), Mass density=270 kg/m3	–	232.37 ± 14	–
[2], 606.21 K, Fluid (supercritical or subcritical phases), Mass density=270 kg/m3	–	232 ± 14	–
[2], 606.56 K, Fluid (supercritical or subcritical phases), Mass density=270 kg/m3	–	232 ± 14	–
[2], 609.49 K, Fluid (supercritical or subcritical phases), Mass density=270 kg/m3	–	231.26 ± 14	–
[2], 609.67 K, Fluid (supercritical or subcritical phases), Mass density=270 kg/m3	–	230.52 ± 14	–
[2], 609.84 K, Fluid (supercritical or subcritical phases), Mass density=270 kg/m3	–	230.89 ± 14	–
[2], 621.18 K, Fluid (supercritical or subcritical phases), Mass density=270 kg/m3	–	227.55 ± 14	–
[2], 621.53 K, Fluid (supercritical or subcritical phases), Mass density=270 kg/m3	–	226.81 ± 14	–
[2], 622.22 K, Fluid (supercritical or subcritical phases), Mass density=270 kg/m3	–	226.07 ± 14	–
[2], 637.42 K, Fluid (supercritical or subcritical phases), Mass density=270 kg/m3	–	225.33 ± 14	–
[2], 637.77 K, Fluid (supercritical or subcritical phases), Mass density=270 kg/m3	–	223.11 ± 13	–

[1], isochoric method
Conditions	mass density [kg/m3]
528.31 K, 2642 kPa, Gas	113.76 ± 1.1
531.38 K, 2775 kPa, Gas	167.7 ± 2.1
533.03 K, 2834 kPa, Gas	203.9 ± 1.8
539.69 K, 3127 kPa, Gas	113.76 ± 6.1
543.3 K, 3315 kPa, Gas	113.76 ± 6.4
543.89 K, 3315 kPa, Gas	167.7 ± 5.6
546.79 K, 3456 kPa, Gas	113.76 ± 4.7
548.15 K, 3531 kPa, Gas	113.76 ± 8
548.49 K, 3579 kPa, Gas	203.9 ± 8.2
550.05 K, 4256 kPa, Liquid	470 ± 1.3
550.45 K, 3647 kPa, Gas	167.7 ± 3.1
551.66 K, 3610 kPa, Gas	113.76 ± 2.8
555.53 K, 3893 kPa, Gas	167.7 ± 2.9
555.7 K, 3941 kPa, Gas	203.9 ± 3.3
557.65 K, 4020 kPa, Gas	167.7 ± 1
558.64 K, 3788 kPa, Gas	113.76 ± 0.83
559.33 K, 4118 kPa, Gas	203.9 ± 1.3
561.09 K, 6138 kPa, Liquid	470 ± 1.3
562.14 K, 4275 kPa, Gas	167.7 ± 2.4
563.04 K, 4340 kPa, Gas	203.9 ± 2.5
564.02 K, 4461 kPa, Liquid	270 ± 0.8
565.29 K, 4559 kPa, Liquid	345.9 ± 1.8
568.44 K, 4598 kPa, Gas	203.9 ± 4
569.15 K, 4559 kPa, Gas	167.7 ± 4
569.8 K, 4775 kPa, Liquid	270 ± 2.9
572.54 K, 5138 kPa, Liquid	345.9 ± 2.6
574.48 K, 4178 kPa, Gas	113.76 ± 0.56
577.73 K, 5059 kPa, Gas	203.9 ± 0.9
580.8 K, 5000 kPa, Gas	167.7 ± 0.8
582.21 K, 5647 kPa, Liquid	270 ± 1.4
583.19 K, 6118 kPa, Liquid	345.9 ± 1.1
584.19 K, 10275 kPa, Liquid	470 ± 1.2
588.79 K, 5613 kPa, Gas	203.9 ± 0.7
590.87 K, 4586 kPa, Gas	113.76 ± 0.43
593.16 K, 5452 kPa, Gas	167.7 ± 0.5
593.16 K, 6393 kPa, Liquid	270 ± 0.7
600.42 K, 6162 kPa, Gas	203.9 ± 0.7
604.17 K, 5852 kPa, Gas	167.7 ± 0.5
605.17 K, 4925 kPa, Gas	113.76 ± 0.39
605.88 K, 7197 kPa, Liquid	270 ± 0.9
606.77 K, 8197 kPa, Liquid	345.9 ± 1.1
614.97 K, 6834 kPa, Gas	203.9 ± 0.6
616.27 K, 6275 kPa, Gas	167.7 ± 0.5
616.28 K, 5197 kPa, Gas	113.76 ± 0.38
